Source: ChEMBL document CHEMBL1201862, “PubChem BioAssay data set” (2004)
Where “and” joins values, the source holds several entries; their conditions need not be identical. Equal values may be shown once.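 Exposure lasted 48 hours, with cells grown in 96-well plates and compounds tested at five concentrations. GI50 marks 50% less growth.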 Calls of active or inactive are those of the source. No stated cut-off is given here; in the data, active = GI50 up to about 1.1 µM and inactive = higher.

Assays:
Experiment in all cases: growth of human tumour cells (NCI), 48 h
UACC-62 = tested on: UACC-62
TK-10 = tested on: TK-10
OVCAR-5 = tested on: OVCAR-5
SF-539 = tested on: SF-539
MOLT-4 = tested on: MOLT-4
SK-MEL-5 = tested on: SK-MEL-5
SNB-75 = tested on: SNB-75
M14 = tested on: M14
LOX IMVI = tested on: LOX IMVI
SK-MEL-28 = tested on: SK-MEL-28
NCI-H460 = tested on: NCI-H460
NCI-H23 = tested on: NCI-H23
HCT-116 = tested on: HCT-116
SF-295 = tested on: SF-295
PC-3 = tested on: PC-3
SR = tested on: SR
A498 = tested on: A498
786-0 = tested on: 786-0
A549 = tested on: A549

Compound | GI50 (UACC-62) | GI50 (TK-10) | GI50 (OVCAR-5) | GI50 (SF-539) | GI50 (MOLT-4) | GI50 (SK-MEL-5) | GI50 (SNB-75) | GI50 (M14) | GI50 (LOX IMVI) | GI50 (SK-MEL-28) | GI50 (NCI-H460) | GI50 (NCI-H23) | GI50 (HCT-116) | GI50 (SF-295) | GI50 (PC-3) | GI50 (SR) | GI50 (A498) | GI50 (786-0) | GI50 (A549)
O=C1c2scnc2-c2nccc3c2c1nc1ccccc13 [KUANONIAMINE A] | 0.38 µM (active) | 1.46 µM (inactive) | 2.63 µM (inactive) | 0.232 µM (active) | 0.469 µM (active) | 0.0412 µM (active) | 0.94 µM (active) | 0.564 µM (active) | 0.172 µM (active) | 1.65 µM (inactive) | 0.372 µM (active) | 0.223 µM (active) | 0.272 µM (active) | 1.58 µM (inactive) | 0.664 µM (active) | 0.137 µM (active) | 1.26 µM (inactive) | 1.21 µM (inactive) | 1.51 µM (inactive)
CCOC(=O)c1nc2ccc(C(F)(F)F)cc2nc1Oc1ccc(F)cc1 | > 100 µM (inactive) | > 100 µM (inactive) |  | > 100 µM (inactive) | > 100 µM (inactive) | > 100 µM (inactive) | > 100 µM (inactive) | > 100 µM (inactive) | > 100 µM (inactive) | > 100 µM (inactive) | > 100 µM (inactive) | > 100 µM (inactive) | > 100 µM (inactive) | > 100 µM (inactive) | > 100 µM (inactive) | > 100 µM (inactive) | > 100 µM (inactive) | > 100 µM (inactive) | 
COc1cc([C@H]2OC[C@H]3[C@@H]2CO[C@@H]3c2cc(OC)c3c(c2)OCO3)cc(OC)c1OC | 39.9 µM (inactive) and 67.3 µM (inactive) | > 100 µM (inactive) | > 100 µM (inactive) | > 100 µM (inactive) | 12.9 µM (inactive) and > 10 µM (inactive) | 19.2 µM (inactive) and 18.6 µM (inactive) | 46.6 µM (inactive) and 84.5 µM (inactive) | 65.3 µM (inactive) | 70.6 µM (inactive) and 96.8 µM (inactive) | > 100 µM (inactive) | 33.7 µM (inactive) and 33.9 µM (inactive) | 37.4 µM (inactive) and 63 µM (inactive) | 41.6 µM (inactive) and 70.3 µM (inactive) | 48.1 µM (inactive) and 47.9 µM (inactive) | 46.1 µM (inactive) and 51.6 µM (inactive) | 17.3 µM (inactive) and 42.1 µM (inactive) | > 100 µM (inactive) | > 100 µM (inactive) | 46 µM (inactive) and 55.2 µM (inactive)
COC(=O)c1c(O)ccc2c1c1c(n2Cc2cc(OC)cc(OC)c2)C(=O)c2ccccc2C1 | 49.2 µM (inactive) | 52 µM (inactive) | 18.4 µM (inactive) | 50.6 µM (inactive) | 58.1 µM (inactive) | 34.3 µM (inactive) | 4.7 µM (inactive) | 37.8 µM (inactive) | 33.1 µM (inactive) | 16.1 µM (inactive) | 31 µM (inactive) | 58.1 µM (inactive) | 8.28 µM (inactive) | 52.6 µM (inactive) | 16.9 µM (inactive) | 13 µM (inactive) | 92.3 µM (inactive) | 92 µM (inactive) | 36.2 µM (inactive)
CN(O)C(=O)c1ccc(OCc2cccc(Cl)c2)cc1 | 15.4 µM (inactive) | 57.4 µM (inactive) | > 62.1 µM (inactive) | 19 µM (inactive) | 9.64 µM (inactive) | 27.8 µM (inactive) | 47.1 µM (inactive) | 16.7 µM (inactive) | 7.94 µM (inactive) | 40.7 µM (inactive) | 9.4 µM (inactive) | 11.4 µM (inactive) | 8.45 µM (inactive) | 13.2 µM (inactive) | 24.5 µM (inactive) | 4.91 µM (inactive) | 25.8 µM (inactive) | 12.4 µM (inactive) | 16 µM (inactive)
CCC1=C(c2ccc(OC)cc2)CC[C@]2(CCNC2=O)[C@@H]1C | 24.4 µM (inactive) | 35 µM (inactive) | 31.1 µM (inactive) | 28.2 µM (inactive) | 15.8 µM (inactive) | 16.8 µM (inactive) | 27.4 µM (inactive) | 26.4 µM (inactive) | 25.1 µM (inactive) | 30.5 µM (inactive) | 28.2 µM (inactive) | 37.4 µM (inactive) | 23.6 µM (inactive) | 30 µM (inactive) | 26.4 µM (inactive) | 24.2 µM (inactive) | 31.3 µM (inactive) | 42.5 µM (inactive) | 37.6 µM (inactive)
OC/C=C/[C@H](OCc1ccccc1)[C@H](/C=C/CO)OCc1ccccc1 | 80 µM (inactive) | 73.1 µM (inactive) | > 100 µM (inactive) | > 100 µM (inactive) | 13.7 µM (inactive) | 27.9 µM (inactive) | 32.7 µM (inactive) | 76.6 µM (inactive) | 20.4 µM (inactive) | 35.8 µM (inactive) | 57.8 µM (inactive) | 47.8 µM (inactive) | 35.1 µM (inactive) | 32.5 µM (inactive) | 32.3 µM (inactive) | 18.8 µM (inactive) | > 100 µM (inactive) | 44.9 µM (inactive) | 30.3 µM (inactive)
COc1ccc(C2C(C=O)C(N3CCN(C)CC3)=Nc3nc4ccccc4n32)cc1 (configuration not stated) | 14.1 µM (inactive) | 14.3 µM (inactive) | 23.3 µM (inactive) | 22.1 µM (inactive) | < 0.01 µM (active) | 15.9 µM (inactive) | 11.8 µM (inactive) | 17.4 µM (inactive) | 17.3 µM (inactive) | 17 µM (inactive) | 25.2 µM (inactive) | 20.5 µM (inactive) | 14.6 µM (inactive) | 19.9 µM (inactive) | 16.3 µM (inactive) | 0.0382 µM (active) | 11 µM (inactive) | 20 µM (inactive) | 17.2 µM (inactive)
COc1ccc2c3c([nH]c2c1)[C@H]1C[C@H]2[C@H](C[C@@H](O)[C@H](OC)[C@H]2C(=O)O)CN1CC3 | > 100 µM (inactive) | > 100 µM (inactive) | > 100 µM (inactive) | > 100 µM (inactive) | > 100 µM (inactive) | > 100 µM (inactive) | > 100 µM (inactive) | > 100 µM (inactive) | > 100 µM (inactive) | > 100 µM (inactive) | > 100 µM (inactive) | > 100 µM (inactive) | > 100 µM (inactive) | > 100 µM (inactive) | > 100 µM (inactive) | > 100 µM (inactive) | > 100 µM (inactive) | > 100 µM (inactive) | > 100 µM (inactive)
COC(=O)C1=C(O)C(C(=O)OC)[C@@]2(O)[C@@H](C(=O)OC)C(c3ccc(OC(=O)/C(=C/c4ccccc4)c4ccccc4)cc3)C[C@@H]1[C@@H]2C(=O)OC (some centres not stated) | 3.47 µM (inactive) | 13.2 µM (inactive) | 80.4 µM (inactive) | 2.46 µM (inactive) | 3.72 µM (inactive) | 26.8 µM (inactive) | 12.1 µM (inactive) | 7.03 µM (inactive) | 4.71 µM (inactive) | 81.5 µM (inactive) | 5.21 µM (inactive) | > 100 µM (inactive) | 5 µM (inactive) | 38.1 µM (inactive) | 32.5 µM (inactive) | 6.73 µM (inactive) | 40.8 µM (inactive) | 6.46 µM (inactive) | 69.2 µM (inactive)
CCN(CC)C(=S)SNCCc1ccc(S(N)(=O)=O)cc1 | 16.9 µM (inactive) | 18.6 µM (inactive) | 15.6 µM (inactive) | 14.1 µM (inactive) |  | 11.2 µM (inactive) | 13.9 µM (inactive) | 10.9 µM (inactive) | 8 µM (inactive) | 9.23 µM (inactive) | 22.4 µM (inactive) | 18.8 µM (inactive) | 13.3 µM (inactive) | 16.7 µM (inactive) | 13.9 µM (inactive) | < 0.01 µM (active) | 30.7 µM (inactive) | 14.7 µM (inactive) | 11.9 µM (inactive)
N#Cc1cccc(C2ON=C(c3ccc([N+](=O)[O-])cc3)N2C23CC4CC(CC(C4)C2)C3)c1 (configuration not stated) | > 100 µM (inactive) | > 100 µM (inactive) | 3.21 µM (inactive) | > 100 µM (inactive) | 6.68 µM (inactive) | 43.6 µM (inactive) | > 100 µM (inactive) | 57.8 µM (inactive) | 74.1 µM (inactive) | > 100 µM (inactive) | > 100 µM (inactive) | > 100 µM (inactive) | 6.21 µM (inactive) | 79.8 µM (inactive) | 5.2 µM (inactive) | 7.71 µM (inactive) | > 100 µM (inactive) | > 100 µM (inactive) | 27.4 µM (inactive)
Oc1ccccc1/C=N/c1ccc(-c2nc3ccccc3s2)cc1 | 21.2 µM (inactive) | 31.2 µM (inactive) | 28.3 µM (inactive) | 30.8 µM (inactive) | 22.7 µM (inactive) | 15.1 µM (inactive) | 36.1 µM (inactive) | 37.1 µM (inactive) | 26.4 µM (inactive) | 41.7 µM (inactive) | 25 µM (inactive) | 31.8 µM (inactive) | 29.6 µM (inactive) | 24.1 µM (inactive) | 18.7 µM (inactive) | 33.7 µM (inactive) | 21.4 µM (inactive) | 29.2 µM (inactive) | 36.7 µM (inactive)
c1ccc2c3c([nH]c2c1)C1c2[nH]c4ccccc4c2CCN1CC3 | 16.7 µM (inactive) | 11.2 µM (inactive) | 19.5 µM (inactive) | 17.5 µM (inactive) | 7.59 µM (inactive) | 13.6 µM (inactive) | 16.7 µM (inactive) |  | 11.6 µM (inactive) | 15.2 µM (inactive) | 6.85 µM (inactive) | 12.3 µM (inactive) | 10.2 µM (inactive) | 16 µM (inactive) | 12.9 µM (inactive) | 9.75 µM (inactive) | 19 µM (inactive) | 12.6 µM (inactive) | 14.7 µM (inactive)
